Blank lines part the entries; values can stand above or below the compound they belong to.
What was measured:
oxytocin receptors = target: T1, oxytocin receptors (Rattus norvegicus, UniProt P70536); experiment: Oxytocin Receptor Binding; settings: for IC50: 1.0 nM [3H]oxytocin; for inhibition at 10 µM / inhibition at 1.25 µM: [3H]oxytocin
T1 construct: The uteri are dissected out, cleaned of fat and connective tissues; from tissue; host or cells: uterus of DES-treated female Sprague-Dawley rats
T1 sequence (P70536 1-388): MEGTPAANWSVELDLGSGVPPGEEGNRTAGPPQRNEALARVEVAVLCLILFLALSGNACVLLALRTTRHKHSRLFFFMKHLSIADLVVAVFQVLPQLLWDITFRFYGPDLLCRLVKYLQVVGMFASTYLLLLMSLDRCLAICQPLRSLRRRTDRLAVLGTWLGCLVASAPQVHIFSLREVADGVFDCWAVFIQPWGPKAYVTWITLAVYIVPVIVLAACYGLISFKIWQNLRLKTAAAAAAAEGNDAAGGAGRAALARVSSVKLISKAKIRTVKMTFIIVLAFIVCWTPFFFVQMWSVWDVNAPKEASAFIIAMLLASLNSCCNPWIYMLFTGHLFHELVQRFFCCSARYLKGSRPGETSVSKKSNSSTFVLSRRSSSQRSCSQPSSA
Outline: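 Membranes from uteri of DES-primed (0.3 mg/kg i.m., 18 h) female Sprague-Dawley rats. Competition with 1.0 nM [3H]oxytocin in 50 mM Tris.HCl pH 7.4, 5 mM MgCl2 with protease inhibitors, 60 min at 22 °C, filtration read-out. Non-specific binding with 1.0 uM unlabeled OT; IC50 calculated.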

Vasopressin V1 = Vasopressin V1 Antagonist Activity in Conscious Rats (vasopressin vasopressor response); format: in vivo, rat; set-up: Average Change: unit not given here; settings: for % Inhibition / Average Change: SHR
Outline: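 Conscious rats are restrained supine, and under local 2% procaine a PE 10/20 cannula is passed through the ventral caudal tail artery into the lower abdominal aorta. The caudal vein is cannulated for intravenous dosing. Blood pressure is recorded with a Statham P23Db transducer, and vasopressin injections are repeated after compound dosing. Percent antagonism is calculated against the pre-drug vasopressor response taken as 100%.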

[1] = target: T2, Rat Kidney Medullary V2 Receptors (Rattus norvegicus, UniProt Q00788); experiment: Binding Assay to Rat Kidney Medullary V2 Receptors; settings: for IC50: rat kidney medulla membranes, read-out: V2 IC50; for inhibition at 10 µM: rat
T2 construct: Medullary tissues from rat kidneys are dissected out; from tissue; host or cells: rat kidney medulla membranes
Outline: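 Membranes were prepared from rat kidney medulla and stored in 50.0 mM Tris-HCl pH 7.4 with 0.2% BSA and 0.1 mM PMSF. Radioligand competition ran 120 min at bench temperature, with 1.0 μM unlabeled ligand defining nonspecific binding. Compounds were added in 50% DMSO; filtration, tritium scintillation counting, IC50 from competition analysis.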

[2] = 10 mg/kg i.v., VAS 0.01 i.u./kg, 30 min
[3] = 10 mg/kg i.v., VAS 0.01 i.u./kg, 60 min
[4] = 10 mg/kg i.v., VAS 0.01 i.u./kg, 90 min
[5] = 10 mg/kg i.v., VAS 0.01 i.u./kg, 120 min
[6] = 10 mg/kg i.v., VAS 0.01 i.u./kg, 180 min
[7] = 10 mg/kg i.v., VAS 0.01 i.u./kg, 240 min
[8] = 10 mg/kg i.v., VAS 0.01 i.u./kg, 300 min
[9] = 10 mg/kg i.v., VAS 0.02 i.u./kg, 30 min
[10] = 10 mg/kg i.v., VAS 0.02 i.u./kg, 60 min
[11] = 10 mg/kg i.v., VAS 0.02 i.u./kg, 90 min
[12] = 10 mg/kg i.v., VAS 0.02 i.u./kg, 120 min
[13] = 10 mg/kg i.v., VAS 0.02 i.u./kg, 180 min
[14] = 10 mg/kg i.v., VAS 0.02 i.u./kg, 240 min
[15] = 10 mg/kg i.v., VAS 0.02 i.u./kg, 300 min

T2 sequence (Q00788 whole entry): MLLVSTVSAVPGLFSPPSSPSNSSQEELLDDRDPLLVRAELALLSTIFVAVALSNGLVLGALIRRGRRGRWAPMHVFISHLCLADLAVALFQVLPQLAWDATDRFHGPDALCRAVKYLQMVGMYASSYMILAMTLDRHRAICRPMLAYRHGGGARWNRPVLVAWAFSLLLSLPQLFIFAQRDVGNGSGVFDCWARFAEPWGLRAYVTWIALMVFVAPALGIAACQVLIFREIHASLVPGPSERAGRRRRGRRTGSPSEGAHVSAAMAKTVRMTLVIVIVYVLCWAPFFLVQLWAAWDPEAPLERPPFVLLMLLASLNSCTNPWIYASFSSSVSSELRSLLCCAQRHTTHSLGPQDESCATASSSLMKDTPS

IC50 (oxytocin receptors): 300 nM
inhibition at 10 µM (oxytocin receptors): 99%
IC50 [1]: 5 nM
SMILES: CN(C)CN(C(=O)c1ccc(Cl)cc1Cl)c1ccc(C(=O)N2Cc3cccn3Cc3ccccc32)cc1 [Example 490, N-[(Dimethylamino)methyl]-N-[4-(5H-pyrrolo[2,1-c][1,4]benzodiazepin-10(11H)-ylcarbonyl)phenyl]-2,4-dichlorobenzamide]
Max. % Inhibition (Vasopressin V1; 10 mg/kg i.v.): 74%
Time (of max. % inhibition) (Vasopressin V1; 10 mg/kg i.v.): 90 min
Max. % Inhibition (Vasopressin V1; 10 mg/kg p.o.): 65%
Time (of max. % inhibition) (Vasopressin V1; 10 mg/kg p.o.): 120 min

IC50 (oxytocin receptors): 8000 nM
inhibition at 10 µM (oxytocin receptors): 56%
IC50 [1]: 22 nM
SMILES: CC(=O)OC(C(=O)Nc1ccc(C(=O)N2Cc3cccn3Cc3ccccc32)cc1)c1ccccc1 (stereo not drawn) [Example 587, α-(Acetyloxy)-N-[4-(5H-pyrrolo[2,1-c][1,4]benzodiazepin-10(11H)-ylcarbonyl)phenyl]benzeneacetamide]
Max. % Inhibition (Vasopressin V1; 10 mg/kg i.v.): 75%
Time (of max. % inhibition) (Vasopressin V1; 10 mg/kg i.v.): 60 min

IC50 (oxytocin receptors): 29 nM
inhibition at 1.25 µM (oxytocin receptors): 97%
SMILES: COc1cc(C(=O)N2Cc3cccn3Cc3ccccc32)ccc1NC(=O)c1ccccc1C [Example 477, N-[4-(5H-pyrrolo[2,1-c][1,4]benzodiazepin-10(11H)-ylcarbonyl)-2-methoxy-phenyl]-2-methylbenzamide]
Max. % Inhibition (Vasopressin V1; 10 mg/kg i.v.): 88%
Time (of max. % inhibition) (Vasopressin V1; 10 mg/kg i.v.): 180 min
Max. % Inhibition (Vasopressin V1; 30 mg/kg p.o.): 82%
Time (of max. % inhibition) (Vasopressin V1; 30 mg/kg p.o.): 30 min

IC50 (oxytocin receptors): 2200 nM
inhibition at 10 µM (oxytocin receptors): 86%
IC50 [1]: 13 nM
SMILES: Cc1cccc(NC(=O)c2ccc(C(=O)N3Cc4cccn4Cc4ccccc43)cc2)c1C [Example 485, N-(2,3-Dimethylphenyl)-4-(5H-pyrrolo[2,1-c][1,4]benzodiazepin-10(11H)-ylcarbonyl)benzamide]
Max. % Inhibition (Vasopressin V1; 30 mg/kg i.v.): 64%
Time (of max. % inhibition) (Vasopressin V1; 30 mg/kg i.v.): 60 min

IC50 (oxytocin receptors): 1100 nM
inhibition at 10 µM (oxytocin receptors): 82%
IC50 [1]: 42 nM
SMILES: COC(=O)c1ccc2n1Cc1ccccc1N(C(=O)c1ccc(NC(=O)c3ccc(Cl)cc3Cl)cc1)C2 [Example 593]
Max. % Inhibition (Vasopressin V1; 30 mg/kg i.v.): 67%
Time (of max. % inhibition) (Vasopressin V1; 30 mg/kg i.v.): 60 min

IC50 (oxytocin receptors): 60 nM
inhibition at 10 µM (oxytocin receptors): 87%
IC50 [1]: 0.7 nM
SMILES: Cc1ccccc1CC(=O)Nc1ccc(C(=O)N2Cc3cccn3Cc3ccccc32)cc1 [Example 93, N-[4(5H-Pyrrolo[2,1-c][1,4]benzodiazepin-10(11H)-ylcarbonyl)phenyl]-2-methylbenzeneacetamide]
% Inhibition (Vasopressin V1; [2]): 96%
Average Change (Vasopressin V1; [2]): 2
% Inhibition (Vasopressin V1; [3]): 94%
Average Change (Vasopressin V1; [3]): 3
% Inhibition (Vasopressin V1; [4]): 90%
Average Change (Vasopressin V1; [4]): 5
% Inhibition (Vasopressin V1; [5]): 88%
Average Change (Vasopressin V1; [5]): 6
% Inhibition (Vasopressin V1; [6]): 73%
Average Change (Vasopressin V1; [6]): 13.5
% Inhibition (Vasopressin V1; [7]): 74%
Average Change (Vasopressin V1; [7]): 13
% Inhibition (Vasopressin V1; [8]): 76%
Average Change (Vasopressin V1; [8]): 12
% Inhibition (Vasopressin V1; [9]): 94%
Average Change (Vasopressin V1; [9]): 4.5
% Inhibition (Vasopressin V1; [10]): 92%
Average Change (Vasopressin V1; [10]): 5.5
% Inhibition (Vasopressin V1; [11]): 90%
Average Change (Vasopressin V1; [11]): 7
% Inhibition (Vasopressin V1; [12]): 90%
Average Change (Vasopressin V1; [12]): 7
% Inhibition (Vasopressin V1; [13]): 78%
Average Change (Vasopressin V1; [13]): 15.5
% Inhibition (Vasopressin V1; [14]): 76%
Average Change (Vasopressin V1; [14]): 17
% Inhibition (Vasopressin V1; [15]): 74%
Average Change (Vasopressin V1; [15]): 18.5

inhibition at 10 µM (oxytocin receptors): 49%
inhibition at 10 µM [1]: 93%
SMILES: Cc1ccccc1C(=O)Nc1ccc(C(=O)N2Cc3ccc(C(=O)C(F)(F)F)n3Cc3ccccc32)c(Cl)c1 [Example 595, N-[4-[[3-(Trifluoroacetyl)-5H-pyrrolo[2,1-c][1,4]benzodiazepin-10(11H)-yl]carbonyl]-3-chlorophenyl]-2-methylbenzamide]
Max. % Inhibition (Vasopressin V1; 30 mg/kg i.v.): 44%
Time (of max. % inhibition) (Vasopressin V1; 30 mg/kg i.v.): 90 min

inhibition at 10 µM (oxytocin receptors): 19%
inhibition at 10 µM [1]: 23%
SMILES: O=C(Nc1ccc(C(=O)N2Cc3ccc(C(=O)C(F)(F)F)n3Cc3ccccc32)cc1)c1ccccc1C(F)(F)F [Example 594]
Max. % Inhibition (Vasopressin V1; 30 mg/kg i.v.): 36%
Time (of max. % inhibition) (Vasopressin V1; 30 mg/kg i.v.): 180 min

IC50 (oxytocin receptors): 450 nM
inhibition at 10 µM (oxytocin receptors): 92%
SMILES: O=C(Nc1ccc(C(=O)N2Cc3cccn3Cc3ccccc32)c(Cl)c1)c1ccc(F)cc1Cl [Example 527, N-[4-(5H-pyrrolo[2,1-c][1,4]benzodiazepin-10(11H)-ylcarbonyl]-3-chlorophenyl]-4-fluoro-2-chlorobenzamide]
Max. % Inhibition (Vasopressin V1; 30 mg/kg i.v.): 85%
Time (of max. % inhibition) (Vasopressin V1; 30 mg/kg i.v.): 180 min

SMILES: Cc1ccc(F)cc1C(=O)Nc1ccc(C(=O)N2Cc3cccn3Cc3ccccc32)c(Cl)c1 [Example 482, N-[4-(5H-pyrrolo[2,1-c][1,4]benzodiazepin-10(11H)-ylcarbony)-3-chlorophenyl]-5-fluoro-2-methylbenzamide]
IC50 (oxytocin receptors): 126 nM
inhibition at 10 µM (oxytocin receptors): 97%
Max. % Inhibition (Vasopressin V1; 10 mg/kg i.v.): 40%
Time (of max. % inhibition) (Vasopressin V1; 10 mg/kg i.v.): 60 min
IC50 [1]: 2.3 nM

IC50 (oxytocin receptors): 1170 nM
inhibition at 10 µM (oxytocin receptors): 90%
SMILES: O=C(Nc1ccc(C(=O)N2Cc3cccn3Cc3ccccc32)c(Cl)c1)c1ccccc1C(F)(F)F [Example 528, N-[4-(5H-pyrrolo[2,1-c][1,4]benzodiazepin-10(11H)-ylcarbonyl]-3-chlorophenyl]-2-(trifluoromethyl)benzamide]
Max. % Inhibition (Vasopressin V1; 30 mg/kg i.v.): 66%
Time (of max. % inhibition) (Vasopressin V1; 30 mg/kg i.v.): 300 min

IC50 (oxytocin receptors): 1000 nM
inhibition at 10 µM (oxytocin receptors): 95%
SMILES: O=C(Nc1ccc(C(=O)N2Cc3cccn3Cc3sccc32)cc1)c1ccc(Cl)cc1Cl [Example 274, N-(4-(5H-pyrrolo[1,2-a]thieno-[3,2-e][1,4]diazepin-4(10H)-ylcarbonyl)phenyl]-2,4-dichloro-benzamide]
Max. % Inhibition (Vasopressin V1; 10 mg/kg i.v.): 59%
Time (of max. % inhibition) (Vasopressin V1; 10 mg/kg i.v.): 300 min

IC50 (oxytocin receptors): 280 nM
inhibition at 10 µM (oxytocin receptors): 98%
SMILES: Cc1cccc(C(=O)Nc2ccc(C(=O)N3Cc4cccn4Cc4ccccc43)c(Cl)c2)c1C [Example 525, N-[4-(5H-pyrrolo[2,1-c][1,4]benzodiazepin-10(11H)-ylcarbonyl]-3-chlorophenyl]-2,3-dimethylbenzamide]
Max. % Inhibition (Vasopressin V1; 30 mg/kg i.v.): 70%
Time (of max. % inhibition) (Vasopressin V1; 30 mg/kg i.v.): 60 min

IC50 (oxytocin receptors): 150 nM
inhibition at 10 µM (oxytocin receptors): 98%
SMILES: O=C(Nc1ccc(C(=O)N2Cc3cccn3Cc3ccccc32)cc1)c1cc([N+](=O)[O-])ccc1Cl [Example 480, N-[4-(5H-pyrrolo[2,1-c][1,4]benzodiazepin-10(11H)-ylcarbonyl)phenyl]-2-chloro-5-nitrobenzamide]
Max. % Inhibition (Vasopressin V1; 10 mg/kg i.v.): 29%
Time (of max. % inhibition) (Vasopressin V1; 10 mg/kg i.v.): 300 min

IC50 (oxytocin receptors): 40 nM
inhibition at 1.25 µM (oxytocin receptors): 97%
SMILES: COc1cc(C(=O)N2Cc3cccn3Cc3ccccc32)ccc1NC(=O)c1ccc(Cl)cc1Cl [Example 478, N-[4-(5H-pyrrolo[2,1-c][1,4]benzodiazepin-10(11H)-ylcarbonyl)-2-methoxy-phenyl]-2,4-dichlorobenzamide]
Max. % Inhibition (Vasopressin V1; 10 mg/kg i.v.): 76%
Time (of max. % inhibition) (Vasopressin V1; 10 mg/kg i.v.): 120 min

— patent US5624923A, “Tricyclic diazepine vasopressin antagonists and oxytocin antagonists” (priority 1995, dated 1997)
